# From patent publication US20100267637A1, “TREATMENT OF MELANOMA WITH ALPHA THYMOSIN PEPTIDES IN COMBINATION WITH A KINASE INHIBITOR” (SciClone Pharmaceuticals, Inc., priority 2007, published 2010)
# Test system: murine B16 melanoma cells
# Test: Anti-tumor effect: tumor size / tumor volume in mice bearing subcutaneous B16 melanoma
# Assay type: in vivo, C57BL/6 mice
# Parameters: key to Tumor measurement L (length) / Tumor measurement W (width): The sign “—” indicates that tumor does not reach a measurable size
# Settings: for Tumor Volume (cm^3) (Mean ± SD): group mean; for PI (TV), percent inhibition of tumor volume: vs vehicle; for Tumor volumes on Day 15: Length × Width × Width/2
# Method: The toxic effects of the dosing regimens were also monitored. […] Meanwhile 9H10 was given in two groups via i.p. on Day 3, 6 and 9. […] Tumor volume and body weight were measured every three days, and tumor weights were measured on Day 16 at the end of the study.
# As per aseptic tissue culture procedures, one vial of B16 melanoma cells was removed from the liquid nitrogen stock, and placed into a 37° C. water bath. Gentle swirling was conducted until the content of the vial was thawed. Using tissue culture/sterile procedures, the cells were immediately centrifuged with a TD5A-WS centrifuge at 1000 rpm, 20-25° C., 5 min. After centrifugation, the cells were suspended in 0.1 to 0.5 mL normal saline (NS) and subcutaneously injected into 10 mice (0.1 mL/mouse, about 1×10^6 cells). After 7-10 days, when the tumor diameter was approximately 1 cm, the animals were euthanized with CO2 overdose and the tumors excised. The procedure was repeated with 20 mice to generate a sufficient number of B16 melanoma cells with adequate transplantability.
# On the day of tumor implantation, approximately 1×10^6 cells in 0.1 mL were subcutaneously injected on the right axillary area of each mouse. The day of tumor implantation was defined as Day 0.
# On Day 3, the animals were randomly assigned into nine different weight-matched and tumor-size-matched groups. Dosing was started on Day 3 using the regimen according to Table 2.
# From Day 1 to Day 15, mortality and moribundity were checked twice daily, the body weights were recorded once every 3 days, and tumors were measured using a caliper once every 3 days. At the end of the study (Day 16), the animals were euthanized by CO2 asphyxiation, and the tumors were excised and weighed.
# Based on the tumor size, the tumor volume (TV) was calculated with the formula: [TV=(Length×Width×Width)/2]. And the percent inhibition (PI) of TV (PITV) was calculated according to the equation below:
# PITV(%)=(TV vehicle−TVdrug treated)/TV vehicle×100
# Inter-group comparison was performed in terms of tumor volume, tumor weight and body weight, using a student's t test. P values of less than 0.05 were considered to be statistically significant.
compound,measurement,setting,value
CNC(=O)c1cc(Oc2ccc(NC(=O)Nc3ccc(Cl)c(C(F)(F)F)c3)cc2)ccn1 [Sorafenib],Tumor measurement L (length),"Day 3, animal F1",—
same,Tumor measurement W (width),"Day 3, animal F1",—
same,Tumor volume,"Day 3, animal F1",0.0000 cm^3
same,Tumor measurement L (length),"Day 3, animal F2",0.20 cm
same,Tumor measurement W (width),"Day 3, animal F2",0.20 cm
same,Tumor volume,"Day 3, animal F2",0.0040 cm^3
same,Tumor measurement L (length),"Day 3, animal F3",0.10 cm
same,Tumor measurement W (width),"Day 3, animal F3",0.10 cm
same,Tumor volume,"Day 3, animal F3",0.0005 cm^3
same,Tumor measurement L (length),"Day 3, animal F4",—
same,Tumor measurement W (width),"Day 3, animal F4",—
same,Tumor volume,"Day 3, animal F4",0.0000 cm^3
same,Tumor measurement L (length),"Day 3, animal F5",—
same,Tumor measurement W (width),"Day 3, animal F5",—
same,Tumor volume,"Day 3, animal F5",0.0000 cm^3
same,Tumor measurement L (length),"Day 3, animal M1",0.20 cm
same,Tumor measurement W (width),"Day 3, animal M1",0.20 cm
same,Tumor volume,"Day 3, animal M1",0.0040 cm^3
same,Tumor measurement L (length),"Day 3, animal M2",—
same,Tumor measurement W (width),"Day 3, animal M2",—
same,Tumor volume,"Day 3, animal M2",0.0000 cm^3
same,Tumor measurement L (length),"Day 3, animal M3",—
same,Tumor measurement W (width),"Day 3, animal M3",—
same,Tumor volume,"Day 3, animal M3",0.0000 cm^3
same,Tumor measurement L (length),"Day 3, animal M4",—
same,Tumor measurement W (width),"Day 3, animal M4",—
same,Tumor volume,"Day 3, animal M4",0.0000 cm^3
same,Tumor measurement L (length),"Day 3, animal M5",—
same,Tumor measurement W (width),"Day 3, animal M5",—
same,Tumor volume,"Day 3, animal M5",0.0000 cm^3
same,Tumor Volume (cm^3) (Mean ± SD),Day 3,0.001 ± 0.0017 cm^3
same,"PI (TV), percent inhibition of tumor volume",Day 3,−750.00%
same,Tumor measurement L (length),"Day 6, animal F1",—
same,Tumor measurement W (width),"Day 6, animal F1",—
same,Tumor volume,"Day 6, animal F1",0.0000 cm^3
same,Tumor measurement L (length),"Day 6, animal F2",—
same,Tumor measurement W (width),"Day 6, animal F2",—
same,Tumor volume,"Day 6, animal F2",0.0000 cm^3
same,Tumor measurement L (length),"Day 6, animal F3",—
same,Tumor measurement W (width),"Day 6, animal F3",—
same,Tumor volume,"Day 6, animal F3",0.0000 cm^3
same,Tumor measurement L (length),"Day 6, animal F4",—
same,Tumor measurement W (width),"Day 6, animal F4",—
same,Tumor volume,"Day 6, animal F4",0.0000 cm^3
same,Tumor measurement L (length),"Day 6, animal F5",—
same,Tumor measurement W (width),"Day 6, animal F5",—
same,Tumor volume,"Day 6, animal F5",0.0000 cm^3
same,Tumor measurement L (length),"Day 6, animal M1",—
same,Tumor measurement W (width),"Day 6, animal M1",—
same,Tumor volume,"Day 6, animal M1",0.0000 cm^3
same,Tumor measurement L (length),"Day 6, animal M2",—
same,Tumor measurement W (width),"Day 6, animal M2",—
same,Tumor volume,"Day 6, animal M2",0.0000 cm^3
same,Tumor measurement L (length),"Day 6, animal M3",—
same,Tumor measurement W (width),"Day 6, animal M3",—
same,Tumor volume,"Day 6, animal M3",0.0000 cm^3
same,Tumor measurement L (length),"Day 6, animal M4",—
same,Tumor measurement W (width),"Day 6, animal M4",—
same,Tumor volume,"Day 6, animal M4",0.0000 cm^3
same,Tumor measurement L (length),"Day 6, animal M5",—
same,Tumor measurement W (width),"Day 6, animal M5",—
same,Tumor volume,"Day 6, animal M5",0.0000 cm^3
same,Tumor Volume (cm^3) (Mean ± SD),Day 6,0.000 ± 0.0000 cm^3
same,"PI (TV), percent inhibition of tumor volume",Day 6,100.00%
same,Tumor volume,"Day 9, animal F1",0.0000 cm^3
same,Tumor volume,"Day 9, animal F2",0.0000 cm^3
same,Tumor volume,"Day 9, animal F3",0.0000 cm^3
same,Tumor volume,"Day 9, animal F4",0.0000 cm^3
same,Tumor measurement L (length),"Day 9, animal F5",0.10 cm
same,Tumor measurement W (width),"Day 9, animal F5",0.10 cm
same,Tumor volume,"Day 9, animal F5",0.0005 cm^3
same,Tumor volume,"Day 9, animal M1",0.0000 cm^3
same,Tumor volume,"Day 9, animal M2",0.0000 cm^3
same,Tumor volume,"Day 9, animal M3",0.0000 cm^3
same,Tumor volume,"Day 9, animal M4",0.0000 cm^3
same,Tumor measurement L (length),"Day 9, animal M5",0.10 cm
same,Tumor measurement W (width),"Day 9, animal M5",0.10 cm
same,Tumor volume,"Day 9, animal M5",0.0005 cm^3
same,Tumor Volume (cm^3) (Mean ± SD),Day 9,0.000 ± 0.0002 cm^3
same,"mean tumor volume compared with Group 1 (vehicle), statistics","Day 9, p<0.05",statistically significantly smaller than Group 1
same,"PI (TV), percent inhibition of tumor volume",Day 9,99.52%
same,"Tumor measurements on Day 12, L","Day 12, animal F1",0.30 cm
same,"Tumor measurements on Day 12, W","Day 12, animal F1",0.30 cm
same,Tumor volume,"Day 12, animal F2",0.0000 cm^3
same,"Tumor measurements on Day 12, L","Day 12, animal F3",0.30 cm
same,"Tumor measurements on Day 12, W","Day 12, animal F3",0.30 cm
same,"Tumor measurements on Day 12, L","Day 12, animal F4",0.30 cm
same,"Tumor measurements on Day 12, W","Day 12, animal F4",0.30 cm
same,"Tumor measurements on Day 12, L","Day 12, animal F5",0.30 cm
same,"Tumor measurements on Day 12, W","Day 12, animal F5",0.30 cm
same,Tumor volume,"Day 12, animal M1",0.0000 cm^3
same,"Tumor measurements on Day 12, L","Day 12, animal M2",0.30 cm
same,"Tumor measurements on Day 12, W","Day 12, animal M2",0.30 cm
same,Tumor volume,"Day 12, animal M3",0.0000 cm^3
same,Tumor volume,"Day 12, animal M4",0.0000 cm^3
same,"Tumor measurements on Day 12, L","Day 12, animal M5",0.30 cm
same,"Tumor measurements on Day 12, W","Day 12, animal M5",0.30 cm
same,Tumor Volume (cm^3) (Mean ± SD),Day 12,0.008 ± 0.0070 cm^3
same,"PI (TV), percent inhibition of tumor volume",Day 12,97.64%
same,"Tumor measurements on Day 15, L","Day 15, animal F1",0.60 cm
same,"Tumor measurements on Day 15, W","Day 15, animal F1",0.60 cm
same,"Tumor measurements on Day 15, L","Day 15, animal F2",0.40 cm
same,Tumor volumes on Day 15,"Day 15, animal F2",0.0320 cm^3
same,"Tumor measurements on Day 15, W","Day 15, animal F2",0.40 cm
same,"Tumor measurements on Day 15, L","Day 15, animal F3",0.60 cm
same,"Tumor measurements on Day 15, W","Day 15, animal F3",0.60 cm
same,"Tumor measurements on Day 15, L","Day 15, animal F4",0.70 cm
same,Tumor volumes on Day 15,"Day 15, animal F4",0.0875 cm^3
same,"Tumor measurements on Day 15, W","Day 15, animal F4",0.50 cm
same,"Tumor measurements on Day 15, L","Day 15, animal F5",0.50 cm
same,Tumor volumes on Day 15,"Day 15, animal F5",0.0625 cm^3
same,"Tumor measurements on Day 15, W","Day 15, animal F5",0.50 cm
same,"Tumor measurements on Day 15, L","Day 15, animal M1",0.20 cm
same,Tumor volumes on Day 15,"Day 15, animal M1",0.0040 cm^3
same,"Tumor measurements on Day 15, W","Day 15, animal M1",0.20 cm
same,"Tumor measurements on Day 15, L","Day 15, animal M2",0.50 cm
same,Tumor volumes on Day 15,"Day 15, animal M2",0.0625 cm^3
same,"Tumor measurements on Day 15, W","Day 15, animal M2",0.50 cm
same,"Tumor measurements on Day 15, L","Day 15, animal M3",0.20 cm
same,Tumor volumes on Day 15,"Day 15, animal M3",0.0040 cm^3
same,"Tumor measurements on Day 15, W","Day 15, animal M3",0.20 cm
same,"Tumor measurements on Day 15, L","Day 15, animal M4",0.30 cm
same,"Tumor measurements on Day 15, W","Day 15, animal M4",0.30 cm
same,"Tumor measurements on Day 15, L","Day 15, animal M5",0.50 cm
same,Tumor volumes on Day 15,"Day 15, animal M5",0.0625 cm^3
same,"Tumor measurements on Day 15, W","Day 15, animal M5",0.50 cm
same,Tumor Volume (cm^3) (Mean ± SD),Day 15,0.054 ± 0.0399 cm^3
same,"PI (TV), percent inhibition of tumor volume",Day 15,92.56%
same,effect on tumor growth in words,daily dosing Days 3-15,effective towards the tumor inhibition
